Measurements published in patent US10894817B2, “Fatty acid modified urocortin-2 analogs for the treatment of diabetes and chronic kidney disease” (priority 2016, dated 2021).
Starred links: 1 amine or outer side, 2 acyl side, 3 side chain; linkers in the order of their positions; H or OH if unused. Non-standard residues stand in square brackets, D forms with d. Residues, ends and D or L forms follow the SMILES beside them. Groups on a side chain read outwards from the residue. *: point of attachment. C20 diacid = O=C(O)CCCCCCCCCCCCCCCCCCC(=O)*; γGlu = O=C(O)[C@H](CCC(=O)[*:2])N[*:1]; Palmitoyl = CCCCCCCCCCCCCCCC(=O)*; NMeI = CC[C@H](C)[C@H](NC)C(=O)O; AEEA = NCCOCCOCC(=O)O

Target: T1, human CRHR2b (Homo sapiens, UniProt Q13324)
T1 construct: expressed in transfected cells; host or cells: Chinese Hamster Ovary (CHO) cells, transient transfection
T1 sequence (Q13324 1-438 isoform Q13324-2): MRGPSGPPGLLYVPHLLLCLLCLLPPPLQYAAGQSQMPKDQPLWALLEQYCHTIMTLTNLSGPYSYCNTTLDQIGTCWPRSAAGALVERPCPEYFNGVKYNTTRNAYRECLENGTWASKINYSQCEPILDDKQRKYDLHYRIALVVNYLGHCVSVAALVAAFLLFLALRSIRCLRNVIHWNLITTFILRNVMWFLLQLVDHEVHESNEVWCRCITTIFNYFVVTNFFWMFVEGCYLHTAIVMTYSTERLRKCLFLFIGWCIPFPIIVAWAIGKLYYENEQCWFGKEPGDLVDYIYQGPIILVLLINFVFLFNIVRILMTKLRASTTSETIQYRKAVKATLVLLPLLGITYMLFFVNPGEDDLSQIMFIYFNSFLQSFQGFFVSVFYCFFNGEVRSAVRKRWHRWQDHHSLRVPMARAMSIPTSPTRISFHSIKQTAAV
Assay: human CRHR2b cell-based cAMP assay
Settings: cAMP assay; Table 26, compounds of Example 9; read-out: hCRHR2b Average EC50
Summary of the method: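 ED50 values are means ± SEM over several runs, curve-fitted from cAMP in pmol, calibrated against unlabeled-cAMP standards. Detection was HTRF competition, ratio 665/620 nm, after 30 min agonist exposure at 37 °C.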

EC50 [nM]	SMILES
64.7	CCCCCCCCCCCCCCCC(=O)N[C@@H](CCC(=O)NCCCC[C@H](NC(=O)[C@H](CCCCN)NC(=O)[C@H](CCC(=O)O)NC(=O)[C@H](CCC(N)=O)NC(=O)[C@H](CCCCN)NC(=O)[C@H](CCC(=O)O)NC(=O)[C@H](CCC(N)=O)NC(=O)[C@H](CCC(=O)O)NC(=O)[C@H](CC(C)C)NC(=O)[C@H](CC(C)C)NC(=O)[C@@H](NC(=O)[C@H](CCC(N)=O)NC(=O)[C@H](CC(C)C)NC(=O)[C@H](CC(C)C)NC(=O)CNC(=O)[C@@H](NC(=O)[C@@H]1CCCN1C(=O)[C@@H](NC(=O)[C@H](CC(=O)O)NC(=O)[C@H](CC(C)C)NC(=O)[C@H](CO)NC(=O)[C@H](CC(C)C)NC(=O)[C@@H](NC(=O)[C@@H](N)[C@@H](C)CC)C(C)C)C(C)C)[C@@H](C)CC)[C@@H](C)CC)C(=O)N[C@@H](CCCCN)C(=O)N[C@@H](CCC(N)=O)C(=O)N[C@@H](CCC(N)=O)C(=O)N[C@@H](C)C(=O)N[C@H](C(=O)N[C@H](C(=O)N[C@@H](CC(N)=O)C(=O)N[C@@H](C)C(=O)N[C@@H](CCCNC(=N)N)C(=O)N[C@H](C(=O)N[C@@H](CC(C)C)C(=O)N[C@@H](C)C(=O)N[C@@H](CCCNC(=N)N)C(=O)N[C@H](C(N)=O)C(C)C)[C@@H](C)CC)[C@@H](C)O)[C@@H](C)O)C(=O)O [Compound 29] (H-IVLSLDVPIGLLQILLEQEKQEKK([γGlu-Palmitoyl])KQQATTNARILARV-NH2)
3.65	CC[C@H](C)[C@H](NC)C(=O)N[C@H](C(=O)N[C@@H](CC(C)C)C(=O)N[C@@H](CO)C(=O)N[C@@H](CC(C)C)C(=O)N[C@@H](CC(=O)O)C(=O)N[C@H](C(=O)N1CCC[C@H]1C(=O)N[C@H](C(=O)NCC(=O)N[C@@H](CC(C)C)C(=O)N[C@@H](CC(C)C)C(=O)N[C@@H](CCC(N)=O)C(=O)N[C@H](C(=O)N[C@@H](CC(C)C)C(=O)N[C@@H](CC(C)C)C(=O)N[C@@H](CCC(=O)O)C(=O)N[C@@H](CCC(N)=O)C(=O)N[C@@H](CCC(=O)O)C(=O)N[C@@H](CCCCN)C(=O)N[C@@H](CCC(N)=O)C(=O)N[C@@H](CCC(=O)O)C(=O)N[C@@H](CCCCN)C(=O)N[C@@H](CCC(=O)O)C(=O)N[C@@H](CCCCN)C(=O)N[C@@H](CCC(N)=O)C(=O)N[C@@H](CCC(N)=O)C(=O)N[C@@H](C)C(=O)N[C@@H](CCCCNC(=O)COCCOCCNC(=O)CC[C@H](NC(=O)CC[C@H](NC(=O)CCCCCCCCCCCCCCCCCCC(=O)O)C(=O)O)C(=O)O)C(=O)N[C@@H](CCC(=O)O)C(=O)N[C@@H](CC(N)=O)C(=O)N[C@@H](C)C(=O)N[C@@H](CCC(=O)O)C(=O)N[C@H](C(=O)N[C@@H](CC(C)C)C(=O)N[C@@H](C)C(=O)N[C@@H](CCC(N)=O)C(=O)N[C@H](C(N)=O)C(C)C)[C@@H](C)CC)[C@@H](C)CC)[C@@H](C)CC)C(C)C)C(C)C [Compound 57] (H-[NMeI]VLSLDVPIGLLQILLEQEKQEKEKQQAK([AEEA-γGlu-γGlu-C20 diacid])ENAEILAQV-NH2)
